Results taken from patent US20180298344A1, “Realistic Humanized Model of Disease Matrix Environment for Evaluation of Therapeutic Reversal or Cell Fate” (Yale University, priority 2017, published 2018).

Test system: human microvascular pericytes (PC) on decellularized healthy lungs
Assay: PC on decellularized control human lung scaffolds, TGF-β1 activation with or without nintedanib: histology, α-SMA IHC, tensile testing
Assay type: cell-based
Method: Lung sections were decellularized as previously described (Sun et al., Am J Physiol Lung Cell Mol Physiol, 2014, 306:L463-475; Petersen et al., Science, 2010, 329:538-541). Briefly, the lung pieces were snap frozen, sliced to 2 mm thickness, and rinsed with PBS containing sodium nitroprusside (SNP). The slices were decellularized with 8 mM CHAPS (Sigma-Aldrich, St Louis, Mo., USA), 1M NaCl, and 25 mM EDTA at 37° C. overnight. The slices were treated with 90 U/mL benzonase nuclease (Sigma) for 1 hour and stored in PBS containing 10% penicillin/streptomycin and 2% Gentamicin at 4° C. until the time of culture. For solubilization, the tissue slices were rinsed with PBS, frozen, and lyophilized. The lyophilized pieces were ground to a fine powder using a tissue grinder and digested with 1 mg/mL pepsin (Sigma) in 0.1 M HCl for 72 hours (DeQuach et al., PLoS One, 2010, 5:e13039).
Samples were fixed in 4% paraformaldehyde for 1 hour, dehydrated, embedded in paraffin, and sectioned into 5μm thick slices. Sections were stained with Masson's Trichrome, picrosirius red, and α-smooth muscle actin (SMA) by the Yale Histology Core Facility.
Decellularized lung samples from control and IPF subjects, as well as polyacrylamide hydrogels of varying crosslinking density, were analyzed using an Instron 5848 with a 10N load cell. Elongation was assessed by cross-head displacement. Strips of 10 mm (length)×1 (width) mm, measured with a digital caliper were affixed to grips and pulled until failure at a strain rate of 1%/sec. For lung samples, parenchymal regions were analyzed, and the pleura was avoided. Hydration of samples with PBS was maintained before and during the mechanical conditioning. Using sample dimensions, engineering stress and strain were calculated using the following equations:
σ=stress, F=Force, A0=initial area, ε=strain, lf=final length, l0=initial length. The Young's Modulus for the tissue was determined by dividing the engineering stress σ, by the engineering strain ε at 20% strain, within the normal range of lung inflation. Mechanical properties of the polyacrylamide hydrogels were also analyzed using a modified model of the Hertz equation using a custom made apparatus (FIG. 3) (Lauridsen et al., Technology, 2014, 2:133).
For short term (7 day) differentiation studies, PC (passage 3-7) were seeded on healthy or IPF lung tissue slices, polyacrylamide hydrogels, or 25 mm glass coverslips (VWR) at 100×10^3 cells per sample and activated with control media (non-activated), or 1 ng/mL TGF-β1 (PeproTech, Rocky Hill, N.J., USA) for 7 days (18, 19). For bleomycin activation, the cells were activated with 1 μg/mL bleomycin sulfate (Cayman Chemical, Ann Arbor, Mich.) for 1 day and the media was replaced with non-activated media for the remaining 6 days (Sava et al., Microcirculation, 2015, 22:54-67; Sterling et al., J Bio Chem, 1983, 258:14438-14444). TGF-β1 and bleomycin concentrations were based on reports consistent with activation of fibroblasts (Sava et al., Microcirculation, 2015, 22:54-67; Maroni and Davis, Bio Reprod, 2012, 87:127). Treatment with CCG-1423 (Sigma) was performed at day 0 for the full 7 days, and labeled as early treatment, or at day 7 and performed for 7 days, and labeled as late treatment. […]

Molecule | matrix density and collagen I content (nintedanib, TGF-β1-activated PC on decellularized healthy lung) | reduction in the number of PC expressing α-SMA (nintedanib, TGF-β1-activated PC on decellularized healthy lung, IHC, P<0.0001) [%] | elastic modulus of the scaffold (nintedanib, P=0.44 compared with control lung, P=0.001 compared with TGF-β1 without nintedanib) | ECM density and collagen I crosslinking (28 days of TGF-β1, Masson's trichrome and Picosirius red staining) | increase in the elastic modulus of the scaffold (28 days of TGF-β1, PC on decellularized healthy lung, P=0.001) [fold]
COC(=O)c1ccc2c(c1)NC(=O)/C2=C(\Nc1ccc(N(C)C(=O)CN2CCN(C)CC2)cc1)c1ccccc1 [nintedanib] | reduction | 90.1 | reversion of the elastic modulus to baseline levels | – | –
TGF-β1: transforming growth factor (TGF)-β1, fibrotic activator, used at 1 ng/mL | – | – | – | increased | 8.6
